Test results as given in US20040122089A1, “Novel eicosanoid analgesics” (priority 2001, published 2004).
Where two headings read alike, the source gives them in different places.

What was measured:
mice [1] = assay: Mouse 'tetrad' of tests after i.v. administration (Example 2); conditions: Mus musculus, iv
CB2 receptors = target: T1, CB2 receptors (Rattus norvegicus, UniProt Q9QZN9); assay: CB2 binding, displacement of [3H]WIN55,212-2 from rat spleen membranes
T1 construct: rat spleen membranes, which contain mostly CB2 receptors; from tissue; host or cells: rat spleen membranes
T1 sequence (Q9QZN9 1-360): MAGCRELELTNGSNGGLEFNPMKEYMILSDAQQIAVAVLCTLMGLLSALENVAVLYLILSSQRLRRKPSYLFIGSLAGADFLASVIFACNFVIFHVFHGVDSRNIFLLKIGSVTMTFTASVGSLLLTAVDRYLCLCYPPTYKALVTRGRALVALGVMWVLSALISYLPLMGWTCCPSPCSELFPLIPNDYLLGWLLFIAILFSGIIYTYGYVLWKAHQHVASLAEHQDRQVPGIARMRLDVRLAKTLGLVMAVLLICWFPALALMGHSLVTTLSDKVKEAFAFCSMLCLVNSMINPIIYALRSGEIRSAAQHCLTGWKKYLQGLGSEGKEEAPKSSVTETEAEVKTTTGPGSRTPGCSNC
Method: (§1) For CB1 receptor binding, [^3H]CP-55,940 (Kd=[…]) was incubated with P2 membranes from whole rat brains as described in Compton et al., J. Pharm. Exp. Ther. 265:218-226 (1993). Displacement curves were generated by incubating drugs with 1 nM of [^3H]CP-55,940. The assays were performed in triplicate, and the results represent the combined data from three individual experiments. A separate set of experiments were conducted in which phenylmthylsulfonylfluoride (PMSF) was added at a concentration of 100 μm in order to prevent possible metabolism of the analogs. CB2 binding assays were performed as described in Melek et al., ibid. In all cases, Ki values were calculated applying the Cheng-Prusoff equation to the IC50 values (obtained by GraphPad) for the displacement of the bound radioligand by increasing concentrations of the test compounds.
(§2) In Table 1, affinity for CB1 and CB2 receptors was measured in displacement assays carried out using rat brain or spleen membranes and [^3H]CP 55,940 or […], respectively. Potency at human VR1 was established by measuring the stimulatory activity of the compounds on the Ca^2+ intracellular concentration in HEK cells transfected with cDNA encoding the human VR1 receptor. Efficacy at VR1 was measured by expressing the effect of a maximal concentration of each compound (usually 10 μM) as percent of the maximal possible effect obtained with 4 μM ionomycin. Data are means ±SEM of at least n=3 separate determinations. *Ki was determined in the presence of PMSF.
The hydroxy analog is much less CB1 vs. CB2 selective in both series.

human VR1 receptor [2] = target: T2, human VR1 receptor (Homo sapiens, UniProt Q8NER1); assay: Ca2+ influx (Fluo-3) in HEK-hVR1 cells (Example 2); type: cell-based; set-up: expressed in transfected cells; host or cells: HEK 293 cells (HEK-hVR1)
Method: N18TG2 and RBL-2H3 cells were grown as described in Melck et al, Bioch. Biophys. Res. Commun. 262:275-284 (1999). Ionomycin was purchased from Sigma. DMH-arvanil, and six substituted dimethylpentyl (DMP) derivatives of arvanil and met-AEA were synthesized as described in Example 1.
HEK-hVR1 cells were prepared and loaded as described in De Petrocellis, et al., FEBS Lett. 483:52-56 (2000). Experiments were carried out by measuring fluorescence at 25° C. […] Capsazepine (1-5 μM) was added 30 minu. Before the test compounds.
as §2

[3] = target: T3, fatty acid amide hydrolase (FAAH) (Mus musculus, UniProt O08914); assay: [14C]AEA hydrolysis by N18TG2 cell membranes; type: biochemical
T3 construct: membranes prepared from N18TG2 cells; endogenous in cells; host or cells: N18TG2 cell membranes
T3 sequence (O08914 1-579): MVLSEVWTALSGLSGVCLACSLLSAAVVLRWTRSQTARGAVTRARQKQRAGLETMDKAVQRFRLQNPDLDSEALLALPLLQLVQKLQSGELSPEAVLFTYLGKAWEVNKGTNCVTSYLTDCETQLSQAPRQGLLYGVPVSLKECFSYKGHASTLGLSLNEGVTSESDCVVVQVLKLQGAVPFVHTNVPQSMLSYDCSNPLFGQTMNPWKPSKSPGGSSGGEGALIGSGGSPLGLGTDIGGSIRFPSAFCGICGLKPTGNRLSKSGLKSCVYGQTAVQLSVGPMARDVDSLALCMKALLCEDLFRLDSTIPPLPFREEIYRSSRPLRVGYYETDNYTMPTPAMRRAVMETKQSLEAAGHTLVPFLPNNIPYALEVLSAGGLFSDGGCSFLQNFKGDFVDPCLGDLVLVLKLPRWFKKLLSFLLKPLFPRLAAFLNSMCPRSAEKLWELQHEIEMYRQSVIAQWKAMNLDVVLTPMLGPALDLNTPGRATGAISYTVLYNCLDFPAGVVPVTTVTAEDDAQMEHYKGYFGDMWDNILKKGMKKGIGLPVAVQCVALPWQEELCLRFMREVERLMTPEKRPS
Method: (§3) The effect of compounds on the enzymatic hydrolysis of [^14C] AEA (6 μM) was studied by using membranes prepared from N18TG2 cells incubated with increasing concentrations of compounds in 50 mM Tris-HCL, pH 9, for 30 min at 37° C. [^14C] Ethanolamine produced from [^14C] AEA hydrolysis was quantified by scintillation spectroscopy and used to measure fatty acid amide hydrolase (FAAH) activity. The effect of compounds on the uptake of AEA by RBL-2H3 cells was studied with a procedure analogous to that described in Melck, ibid., and modified as described in Hilliard et al., J. Neurochem. 69:631-638 (1997). Cells were incubated with [^14C] AEA (4μM) for 5 min. at 37° C., in the presence or absence of varying concentrations of the inhibitors. Residual [1^4C] AEA in the incubation media after extraction with CHCl3/CH30H (2:1 by volume) was used as a measure of the AEA that was taken up by cells.
Accordingly, when the compounds were tested for their capability of inhibiting [^14C] […] This is in agreement with previous observations that Me-AEA, DMH-derivatives of AEA and arvanil are poor substrates for FAAH. The two exceptions were O-1856 and O-1895, which did inhibit the hydrolysis of [^14C] AEA, although not very potently.

CB1 receptors [4] = target: T4, CB1 receptors (Rattus norvegicus, UniProt P20272); assay: CB1 receptor binding, displacement of [3H]CP-55,940 from rat brain P2 membranes (Example 2); set-up: from tissue; host or cells: whole rat brain membranes; conditions: CB1 (Ki, nM), rat brain membranes
Method: as §1, §2

[5] = system: anandamide membrane transporter (AMT); type: cell-based, rat; conditions: [14C]AEA uptake, RBL-2H3 cells
Method: as §3
In consideration of the potent inhibition of the AMT previously observed with arvanil and its derivatives (see Melck, ibid), the seven compounds were also tested for their inhibitory effect on [^4C] […] Thus, the results in Table 1 confirm the existence of a partial overlap between the ligand recognition properties of VR1 receptors and the AMT (14.24).

CB1 receptors [6] = target: T4, CB1 receptors; assay: Agonist-stimulated [35S]GTPγS binding, rat hippocampal membranes; conditions: for Emax: read-out: GTPγS binding (Emax)
FAAH = target: T5, FAAH (Rattus norvegicus, UniProt P97612); assay: Fatty acid amide hydrolase assay, rat brain membranes; type: biochemical
T5 construct: membranes prepared from frozen brains of CD rats (Charles River, France); from tissue; host or cells: brain membranes of CD rats
T5 sequence (P97612 1-579): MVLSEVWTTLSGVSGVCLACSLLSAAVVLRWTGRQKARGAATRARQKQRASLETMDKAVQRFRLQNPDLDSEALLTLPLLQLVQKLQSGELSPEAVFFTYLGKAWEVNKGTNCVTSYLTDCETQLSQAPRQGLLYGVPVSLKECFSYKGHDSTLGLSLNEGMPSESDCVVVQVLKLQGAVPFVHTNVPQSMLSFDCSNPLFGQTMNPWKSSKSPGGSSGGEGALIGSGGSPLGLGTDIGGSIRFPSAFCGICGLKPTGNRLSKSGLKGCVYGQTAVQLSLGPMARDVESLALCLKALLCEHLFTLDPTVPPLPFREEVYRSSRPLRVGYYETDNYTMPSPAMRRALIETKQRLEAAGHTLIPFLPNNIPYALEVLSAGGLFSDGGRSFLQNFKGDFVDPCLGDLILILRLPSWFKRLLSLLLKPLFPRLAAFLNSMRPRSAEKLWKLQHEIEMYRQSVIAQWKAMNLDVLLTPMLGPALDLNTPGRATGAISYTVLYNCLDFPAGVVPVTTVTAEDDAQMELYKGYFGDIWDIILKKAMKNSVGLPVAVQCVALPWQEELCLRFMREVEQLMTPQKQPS
Method: Fatty acid amide hydrolase assay—The effect of compounds on the enzymatic hydrolysis of AEA was studied using membranes prepared from frozen brains of CD rats (Charles River, France), incubated with the test compounds and [^14C] AEA (9 μM) in 50 mM Tris-HCl, pH 9, for 30 min at 37° C. [^14C] Ethanolamine produced from [^14C] AEA hydrolysis was measured by scintillation counting of the aqueous phase after extraction of the incubation mixture with 2 volumes of CHCl3/CH3OH 2:1 (by vol.).
(§4) CP55940 from whole rat brain membranes.

human VR1 receptor [7] = target: T2, human VR1 receptor; assay: Cytosolic calcium concentration assay in HEK-hVR1 cells (Example 3); conditions: for Emax: read-out: hVR1 efficacy (maximal effect, in parentheses)
CB1 receptors [8] = target: T4, CB1 receptors; assay: CB1 receptor binding, [3H]CP55940, whole rat brain membranes (Example 3); conditions: read-out: CB1 affinity Ki
mice [9] = assay: Mouse tetrad of behavioral tests, i.v. (Example 3); type: in vivo; conditions: i.v.; for R.I. ED50 / Rectal temp. ED50 / Spontan. activity ED50 / Tail Flick ED50: mean (range)
Method: The analogs were administered to mice by tail-vein injection and evaluated for their ability to produce hypomotility, hypothermia, and antinociception. These pharmacological measures were determined in the same mouse at a time when maximal activity was present. […] A 10-sec maximum latency was used. Antinociception was expressed as % MPE as described below.
Data Analysis—For production of hypomotility and hypothermia, the data were expressed as a percentage of control activity and change in temperature, respectively. Antinociception was calculated according to the following equation.
% MPE=−((test latency-control latency)/(10s-control latency))×100
At least six animals were treated with each dose-response relationships could be determined for each analog. ED50 values were determined from least-squares unweighted linear regression analysis of log dose-response plots.
The ED50 (milligrams per kilogram, i.v.) does for inhibition of sector crossings (spontaneous activity) in an open field, antinociception (delay in seconds in the tail-flick response), decrease of rectal temperature in degrees Celsius, and induction of time spent in immobility on a ring are shown. Data are means (and ranges) of N>six animals.

AMT = type: cell-based, rat; conditions: [14C]AEA uptake, RBL-2H3 cells; read-out: AEA transport (IC50)
Method: AEA. Cells were incubated with [^14C] AEA for 5 min at 37° C., in the presence or absence of varying concentrations of the inhibitors. Residual [^14C] AEA in the incubation media after extraction with CHCl3/CH3OH 2:1 (by vol.), determined by scintillation counting of the lyophilized organic phase, was used as a measure of the AEA that was taken up by cells.
as §4

T2 sequence (Q8NER1 whole entry): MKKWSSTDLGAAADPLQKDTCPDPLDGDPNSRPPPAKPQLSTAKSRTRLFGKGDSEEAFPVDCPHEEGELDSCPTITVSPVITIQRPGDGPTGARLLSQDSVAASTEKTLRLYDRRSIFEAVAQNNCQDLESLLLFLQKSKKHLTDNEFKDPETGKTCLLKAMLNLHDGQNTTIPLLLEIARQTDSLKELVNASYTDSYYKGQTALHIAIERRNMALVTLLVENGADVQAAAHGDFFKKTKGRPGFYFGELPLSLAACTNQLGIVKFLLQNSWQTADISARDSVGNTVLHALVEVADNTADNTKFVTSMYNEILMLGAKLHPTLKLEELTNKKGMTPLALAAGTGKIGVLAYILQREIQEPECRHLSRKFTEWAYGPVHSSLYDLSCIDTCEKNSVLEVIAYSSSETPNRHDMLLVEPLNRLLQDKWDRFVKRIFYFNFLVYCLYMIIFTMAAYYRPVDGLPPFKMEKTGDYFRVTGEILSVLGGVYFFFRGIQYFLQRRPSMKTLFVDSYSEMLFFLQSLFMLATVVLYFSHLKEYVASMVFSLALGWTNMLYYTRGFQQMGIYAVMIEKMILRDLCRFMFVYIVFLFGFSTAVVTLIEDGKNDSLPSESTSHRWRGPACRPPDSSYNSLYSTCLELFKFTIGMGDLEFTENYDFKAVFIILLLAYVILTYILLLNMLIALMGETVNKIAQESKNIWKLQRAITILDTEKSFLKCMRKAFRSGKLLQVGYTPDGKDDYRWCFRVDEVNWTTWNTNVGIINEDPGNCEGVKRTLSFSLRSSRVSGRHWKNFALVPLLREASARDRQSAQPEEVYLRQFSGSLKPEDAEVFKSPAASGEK
T4 sequence (P20272 whole entry): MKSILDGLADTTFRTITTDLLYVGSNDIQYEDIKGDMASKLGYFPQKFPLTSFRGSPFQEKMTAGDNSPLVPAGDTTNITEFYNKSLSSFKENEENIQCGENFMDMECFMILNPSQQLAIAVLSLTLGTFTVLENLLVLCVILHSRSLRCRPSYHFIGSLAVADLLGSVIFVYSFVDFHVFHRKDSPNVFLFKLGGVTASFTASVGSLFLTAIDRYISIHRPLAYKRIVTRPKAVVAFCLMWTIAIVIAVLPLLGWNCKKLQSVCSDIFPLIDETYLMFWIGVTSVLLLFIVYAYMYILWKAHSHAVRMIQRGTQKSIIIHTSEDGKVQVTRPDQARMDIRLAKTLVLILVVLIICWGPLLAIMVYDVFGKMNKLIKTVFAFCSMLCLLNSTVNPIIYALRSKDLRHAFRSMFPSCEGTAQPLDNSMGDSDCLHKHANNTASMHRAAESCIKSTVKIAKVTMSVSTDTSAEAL

| Compound | Emax (CB1 receptors [6]) [%] | IC50 (FAAH) [µM] | EC50 (human VR1 receptor [7]) [nM] | Emax (human VR1 receptor [7]) [%] | Ki (CB1 receptors [8]) [µM] | Average ED50 (mice [9]) [milligrams per kilogram] | R.I. ED50 (mice [9]) | Rectal temp. ED50 (mice [9]) | Spontan. activity ED50 (mice [9]) | Tail Flick ED50 (mice [9]) | IC50 (AMT) [µM] | other results |
| --- | --- | --- | --- | --- | --- | --- | --- | --- | --- | --- | --- | --- |
| COc1cc(CNC(=O)CCC/C=C\C/C=C\C/C=C\C/C=C\C(C)(C)CCCCBr)ccc1O [Compound O-1861, 20-Bromo-16,16-dimethyl-eicosa-5,8,11,14-all-cis-tetraenoic acid (4-hydroxy-3-methoxy-benzyl) amide] | 32 | – | – | – | – | – | – | – | – | – | – | ED50 (mice [1]; read-out: Average ED50 for the four effects): 0.068 mg/kg; ED50 (mice [1]; read-out: R.I. (relative immobility) ED50): 0.055 mg/kg; ED50 (mice [1]; read-out: R.T. (rectal temperature) ED50): 0.053 mg/kg; ED50 (mice [1]; read-out: S.A. (spontaneous activity) ED50): 0.06 mg/kg; ED50 (mice [1]; read-out: T.F. (tail-flick) ED50): 0.104 mg/kg; Ki (CB2 receptors): > 10 µM; EC50 (human VR1 receptor [2]; VR1 (EC50, nM), Ca2+ in HEK cells with human VR1): 30 ± 0.2 nM; VR1 efficacy (human VR1 receptor [2]; maximal concentration (usually 10 μM), percent of effect of 4 μM ionomycin): 74.0 ± 4.5%; IC50 [3]: > 50 µM; Ki (CB1 receptors [4]; determined in the presence of PMSF, [3H]CP 55,940, PMSF 100 μM): 24.3 ± 2.6 nM; Ki (CB1 receptors [4]; [3H]CP 55,940, without PMSF): 32.6 ± 1.2 nM; IC50 [5]: 13.5 µM; EC50 (CB1 receptors [6]): 70 nM |
| CCCCC/C=C\C/C=C\C/C=C\C/C=C\CCCNC(=S)NCc1ccc(O)c(OC)c1 [Compound O-2095] | 0 | > 50 | 0.4 ± 0.1 | 72.1 | 8.63 ± 0.13 | 0.05 | 0.08 (0.05-0.12) milligrams per kilogram | 0.03 (0.02-0.07) milligrams per kilogram | 0.02 (0.02-0.03) milligrams per kilogram | 0.08 (0.06-0.10) milligrams per kilogram | 7.5 ± 1.8 | – |
| CCCCC/C=C\C/C=C\C/C=C\C/C=C\CCCC(=O)NCc1cccc(OC)c1 [Compound O-1986] | 0 | 18.2 ± 2.8 | 63 ± 10.1 | 68 | 0.484 ± 0.017 | 5.80 | 6.13 (4.79-7.83) milligrams per kilogram | 6.15 (3.22-11.73) milligrams per kilogram | 4.74 (3.17-7.09) milligrams per kilogram | 6.15 (4.63-8.16) milligrams per kilogram | 27.3 ± 3.5 | fold less potent than arvanil at hVR1 (human VR1 receptor [7]): more than 100 fold |
